Consider 7 compounds from ChEMBL document CHEMBL1145307, “Design and synthesis of tetracyclic nonpeptidic biaryl nitrile inhibitors of cathepsin K” (Bioorg Med Chem Lett, 2006).

The target of one data set is T1, Cathepsin K (Homo sapiens, UniProt P43235).
T1 sequence (P43235 whole entry): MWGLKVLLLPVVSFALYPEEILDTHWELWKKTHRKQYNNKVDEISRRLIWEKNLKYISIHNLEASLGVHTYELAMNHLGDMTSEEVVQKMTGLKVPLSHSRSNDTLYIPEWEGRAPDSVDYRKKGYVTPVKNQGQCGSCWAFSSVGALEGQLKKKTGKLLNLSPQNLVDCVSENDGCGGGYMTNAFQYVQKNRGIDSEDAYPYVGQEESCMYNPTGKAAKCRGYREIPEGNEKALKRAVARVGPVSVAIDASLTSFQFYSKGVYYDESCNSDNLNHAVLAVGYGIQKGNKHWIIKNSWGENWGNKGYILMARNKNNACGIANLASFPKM
Kind of data set: Inhibition of human cathepsin K.

Data set [1] is described as follows: Mean residence time in rat at 0.5 mg/kg, iv. It is filed as ADME, organism-based. The arrangement: dose 0.5 mg/kg, route intravenous. The conditions noted are these: in vivo.
Data set [2] is described as follows: Clearance in rat at 0.5 mg/kg, iv. The arrangement: dose 0.5 mg/kg, route intravenous. The conditions noted are these: in vivo. The format is ADME, organism-based.
Data set [3] relates to Rattus norvegicus. The data set can be described thus: Cmax in rat at 10 mg/kg, po. The conditions noted are these: in vivo. More on the design: dose 10 mg/kg, route oral. It is filed as ADME, organism-based.
In data set [4] the test system is Rattus norvegicus. Kind of data set: Tmax in rat at 10 mg/kg, po. The format is ADME, organism-based. The arrangement: dose 10 mg/kg, route oral. The conditions noted are these: in vivo.
Data set [5] deals with Rattus norvegicus. The data set can be described thus: AUC in rat at 10 mg/kg, po. It is filed as ADME, organism-based, Plasma. The following applies: in vivo. More on the design: dose 10 mg/kg, route oral.
Data set [6] relates to Rattus norvegicus. The data set can be described thus: Half life in rat at 10 mg/kg, po. The following applies: in vivo. The arrangement: dose 10 mg/kg, route oral. It is filed as ADME, organism-based.
Data set [7] in a line: Oral bioavailability in rat at 10 mg/kg, po. The format is ADME, organism-based. The conditions noted are these: in vivo.
A short description of data set [8]: Volume of distribution in rat at 0.5 mg/kg, iv. The following applies: in vivo, read-out: Vss. The arrangement: dose 0.5 mg/kg, route intravenous. It is filed as ADME, organism-based.
The next data set addresses Procathepsin L (Homo sapiens, UniProt P07711). Kind of data set: Inhibition of human cathepsin L.
The target in another data set is Cathepsin B (Homo sapiens, UniProt P07858). The data set can be described thus: Inhibition of human cathepsin B.
Another data set concerns the target Cathepsin S (Homo sapiens, UniProt P25774). The data set can be described thus: Inhibition of human cathepsin S.
The next data set relates to Osteoclast. The data set can be described thus: Effect on degradation of bovine bone by rabbit osteoclast. The format is functional, cell-based. The following applies: Oryctolagus cuniculus.
In data set [9] the target is Cathepsin (L and K) (Homo sapiens) (UniProt P43235+P07711). Kind of data set: Selectivity for cathepsin L over cathepsin K. The format is protein assay.
Data set [10] concerns the target Cathepsin (B and K) (Homo sapiens) (UniProt P43235+P07858). Kind of data set: Selectivity for cathepsin B over cathepsin K. The format is protein assay.
For data set [11], the target named is Cathepsin (S and K) (Homo sapiens) (UniProt P25774+P43235). The data set can be described thus: Selectivity for cathepsin S over cathepsin K. It is filed as protein assay.

What is called Ki is a measure of affinity in units of concentration, obtained from inhibition or displacement. Low readings indicate higher affinity, high ones lower affinity. What is called MRT is a mean duration of stay, worked out from the concentration-time curve. As a reminder, the clearance is the rate of elimination divided by the concentration. A high value points to efficient removal. Broadly, the Cmax is the highest concentration seen after dosing. A word on the Tmax: it is the time at which the peak concentration occurs. The AUC is the area under the concentration-time curve, a measure of exposure. Low readings indicate low exposure, high ones high exposure. A word on the bioavailability: it is the share of a dose that reaches the circulation, judged against a reference dose that is usually intravenous. Read a low bioavailability as little systemic uptake. Usually IC50 stands for the concentration needed to halve the response being measured.

Chain of Procathepsin L (P07711 whole entry): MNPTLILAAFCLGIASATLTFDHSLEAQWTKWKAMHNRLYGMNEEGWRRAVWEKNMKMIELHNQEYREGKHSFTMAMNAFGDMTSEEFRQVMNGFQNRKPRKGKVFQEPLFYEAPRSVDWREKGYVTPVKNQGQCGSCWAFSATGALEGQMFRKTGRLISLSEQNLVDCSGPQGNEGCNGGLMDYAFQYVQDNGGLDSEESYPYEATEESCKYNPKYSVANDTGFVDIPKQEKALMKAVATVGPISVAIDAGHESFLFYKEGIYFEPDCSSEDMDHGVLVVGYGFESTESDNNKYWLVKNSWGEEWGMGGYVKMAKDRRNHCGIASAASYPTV
Chain of Cathepsin S (P25774 whole entry): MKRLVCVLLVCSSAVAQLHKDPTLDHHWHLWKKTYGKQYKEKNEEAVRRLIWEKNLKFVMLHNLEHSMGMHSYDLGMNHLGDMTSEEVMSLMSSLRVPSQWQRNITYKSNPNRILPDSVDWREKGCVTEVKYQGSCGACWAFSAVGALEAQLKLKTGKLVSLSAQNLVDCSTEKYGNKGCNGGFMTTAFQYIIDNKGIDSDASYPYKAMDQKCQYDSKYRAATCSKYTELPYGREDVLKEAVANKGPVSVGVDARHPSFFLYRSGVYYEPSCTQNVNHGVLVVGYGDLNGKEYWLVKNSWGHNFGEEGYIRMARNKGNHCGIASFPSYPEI

For the compound `CC(C)CC(C(=O)NCC#N)c1cccc(-c2cccc(-c3csc(N4CCNCC4)n3)c2)c1` (racemic), the Ki at Cathepsin K was found to be 0.8 nM; on Procathepsin L it was 190 nM; at Cathepsin B, 18000 nM; at Cathepsin S, 5600 nM. The compound further showed an MRT in data set [1] of 2.93 h. In [2], this compound yielded a clearance of 25 mL/min/kg. The peak level in the data set with Rattus norvegicus [3] (Cmax) was 1100 nM. Further, the Tmax in the data set with Rattus norvegicus [4] is 3.33 h. The compound also showed an AUC in the data set with Rattus norvegicus [5] of 560 µM·min. The compound also came in with a T1/2 with Rattus norvegicus [6] of 3.9 h. Further, the bioavailability in data set [7] is 85%. Besides, in data set [8], the Vd was found to be 4.3 L/kg. This compound had a 50% inhibitory concentration (IC50) with Osteoclast of 349 nM. In addition, the Selectivity ratio in [9] amounted to 237; in data set [10] it was 22500; in data set [11], 7000.
Regarding `CC(C)C[C@@H](C(=O)NCC#N)c1cccc(-c2cccc(-c3csc(N4CCC(N(C)C)C4)n3)c2)c1` (some centres undefined), the Ki at Cathepsin K stood at 3 nM; on Procathepsin L, 540 nM; on Cathepsin B, 51000 nM; on Cathepsin S, 3600 nM. Besides, in the data set on Osteoclast, the IC50 amounted to 172 nM. Further, the values for the Selectivity ratio in data set [9], in data set [10] and in data set [11] were 180, 17000 and 1200, respectively.
For `CC(C)CC(C(=O)NCC#N)c1cccc(-c2ccc(-c3csc(N4CCNCC4)n3)cc2)c1` (racemic), the Ki was found to be 3.5 nM at Cathepsin K, 2500 nM at Procathepsin L, 12000 nM at Cathepsin B and 9500 nM on Cathepsin S. This compound also showed a mean residence time MRT in data set [1] of 1.77 h. Moreover, in [2], the clearance came to 114 mL/min/kg. Besides, in data set [8], the Vd worked out at 12 L/kg. This compound returned an IC50 in the data set with Osteoclast of 12 nM. The Selectivity ratio was found to be 714 in data set [9], 3430 in data set [10] and 2710 in data set [11].
Take `CC(C)C[C@@H](C(=O)NCC#N)c1cccc(-c2cccc(-c3csc(N4CCN(C(C)(C)C)CC4)n3)c2)c1`: the Ki on Cathepsin K was found to be 1.3 nM; on Procathepsin L, 360 nM; at Cathepsin B, 37000 nM; at Cathepsin S, 5600 nM. Also, in [1], the MRT was 1.82 h. The compound further registered a clearance in data set [2] of 60 mL/min/kg. In data set [8], the Vd is 6.6 L/kg. The same compound yielded an IC50 in the data set with Osteoclast of 28 nM. Moreover, the Selectivity ratio in data set [9] came to 276; in data set [10], 28500; in data set [11] it was 4310.
Turning to `CC(C)CC(C(=O)NCC#N)c1cccc(-c2cccc(-c3csc(N4CCN(C)CC4)n3)c2)c1` (racemic), the Ki stood at 1.3 nM on Cathepsin K, 390 nM at Procathepsin L, 22000 nM on Cathepsin B and 1800 nM at Cathepsin S. Besides, the MRT in data set [1] is 0.9 h. The compound further gave a clearance in data set [2] of 32 mL/min/kg. Moreover, the Vd in [8] came to 1.7 L/kg. Half-maximal inhibition in the data set on Osteoclast (IC50) required 59 nM. Moreover, the Selectivity ratio in data set [9] was 300; in data set [10], 16900; in data set [11], 1380.
For the compound `CC(C)C[C@@H](C(=O)NCC#N)c1cccc(-c2cccc(-c3csc(CN4CCNCC4)n3)c2)c1`, the inhibitory constant (Ki) at Cathepsin K worked out at 4.8 nM; on Procathepsin L, 680 nM; on Cathepsin B it was 51000 nM; on Cathepsin S, 7400 nM. Moreover, in data set [1], the MRT was 2.33 h. The compound further registered a clearance in [2] of 65 mL/min/kg. For the same compound, in data set [8], the Vd was determined as 9.1 L/kg. In the data set on Osteoclast, the IC50 is 43 nM. For the same compound, the values for the Selectivity ratio in [9], in data set [10] and in [11] were 141, 10600 and 1540, respectively.
As to `CC(C)C[C@@H](C(=O)NCC#N)c1cccc(-c2ccc(N3CCNCC3)cc2)c1`, the Ki at Cathepsin K was 8 nM; at Procathepsin L, 4640 nM; at Cathepsin B, 3840 nM; at Cathepsin S, 1690 nM. The compound further showed a mean residence time (MRT) in data set [1] of 2.58 h. The compound further yielded a clearance in data set [2] of 98 mL/min/kg. Moreover, in data set [8], the Vd worked out at 14.8 L/kg. The same compound registered an IC50 with Osteoclast of 95 nM. For the same compound, the Selectivity ratio in data set [9] came out at 580; in [10], 481; in [11], 212.
